Measured values reported in the supplement of paper PMC10307832.

Key:
Test in all cases: relative viability (nuclei count vs DMSO), 5 days (fraction); higher = more cells survive
LK-2 = system: LK-2
Method in brief: (§1)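 Relative viability was taken as the ratio of nuclei in treated wells to nuclei in vehicle wells. Lung cancer cell lines in 1536-well plates received compounds by pin tool one day after seeding, either one drug alone or a fixed anchor-drug dose plus five library-drug doses (not always all listed) in √10 steps. Nuclei were counted on 4× images after 5 days of treatment, and values are medians of duplicate plates.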

NCI-H2405 = system: NCI-H2405
Method in brief: as §1

HOP-62 = system: HOP-62
Method in brief: as §1

SK-MES-1 = system: SK-MES-1
Method in brief: as §1

HCC-78 = system: HCC-78
Method in brief: as §1

BEN = system: BEN
Method in brief: as §1

NCI-H1993 = system: NCI-H1993
Method in brief: as §1

HCC-366 = system: HCC-366
Method in brief: as §1

NCI-H460 = system: NCI-H460
Method in brief: as §1

COR-L 105 = system: COR-L 105
Method in brief: as §1

EMC-BAC-2 = system: EMC-BAC-2
Method in brief: as §1

NCI-H661 = system: NCI-H661
Method in brief: as §1

NCI-H1563 = system: NCI-H1563
Method in brief: as §1

NCI-H647 = system: NCI-H647
Method in brief: as §1

NCI-H1734 = system: NCI-H1734
Method in brief: as §1

PC-14 = system: PC-14
Method in brief: as §1

A-427 = system: A-427
Method in brief: as §1

201T = system: 201T
Method in brief: as §1

HCC-15 = system: HCC-15
Method in brief: as §1

NCI-H1915 = system: NCI-H1915
Method in brief: as §1

COR-L23 = system: COR-L23
Method in brief: as §1

EKVX = system: EKVX
Method in brief: as §1

## CCNC(=O)c1noc(-c2cc(C(C)C)c(O)cc2O)c1-c1ccc(CN2CCOCC2)cc1 [Luminespib] + Cc1nc(NC(=O)N2CCC[C@H]2C(N)=O)sc1-c1ccnc(C(C)(C)C(F)(F)F)c1 [Alpelisib] (partner 2 µM)
LK-2; first compound 0.002 µM
  relative viability: 1.26
LK-2; first compound 0.006325 µM
  relative viability: 1.31
LK-2; first compound 0.02 µM
  relative viability: 0.691
LK-2; first compound 0.06325 µM
  relative viability: 0.71
LK-2; first compound 0.2 µM
  relative viability: 0.259
NCI-H2405; first compound 0.002 µM
  relative viability: 0.968
NCI-H2405; first compound 0.006325 µM
  relative viability: 0.513
NCI-H2405; first compound 0.02 µM
  relative viability: 0.483
NCI-H2405; first compound 0.06325 µM
  relative viability: 0.19
NCI-H2405; first compound 0.2 µM
  relative viability: 0.15
HOP-62; first compound 0.002 µM
  relative viability: 1.17
HOP-62; first compound 0.006325 µM
  relative viability: 0.79
HOP-62; first compound 0.02 µM
  relative viability: 0.603
HOP-62; first compound 0.06325 µM
  relative viability: 0.788
HOP-62; first compound 0.2 µM
  relative viability: 0.927
SK-MES-1; first compound 0.002 µM
  relative viability: 0.82
SK-MES-1; first compound 0.006325 µM
  relative viability: 0.858
SK-MES-1; first compound 0.02 µM
  relative viability: 0.593
SK-MES-1; first compound 0.06325 µM
  relative viability: 0.306
SK-MES-1; first compound 0.2 µM
  relative viability: 0.133
HCC-78; first compound 0.002 µM
  relative viability: 0.309
HCC-78; first compound 0.06325 µM
  relative viability: 0.585
HCC-78; first compound 0.2 µM
  relative viability: 0.216
BEN; first compound 0.002 µM
  relative viability: 1.1
BEN; first compound 0.006325 µM
  relative viability: 0.964
BEN; first compound 0.02 µM
  relative viability: 0.393
BEN; first compound 0.06325 µM
  relative viability: 0.709
BEN; first compound 0.2 µM
  relative viability: 0.224
NCI-H1993; first compound 0.002 µM
  relative viability: 0.676
NCI-H1993; first compound 0.006325 µM
  relative viability: 0.74
NCI-H1993; first compound 0.02 µM
  relative viability: 0.588
NCI-H1993; first compound 0.06325 µM
  relative viability: 0.606
NCI-H1993; first compound 0.2 µM
  relative viability: 0.548
HCC-366; first compound 0.002 µM
  relative viability: 0.442
HCC-366; first compound 0.006325 µM
  relative viability: 0.496
HCC-366; first compound 0.02 µM
  relative viability: 0.312
HCC-366; first compound 0.06325 µM
  relative viability: 0.0181
HCC-366; first compound 0.2 µM
  relative viability: 0.0182
NCI-H460; first compound 0.002 µM
  relative viability: 0.508
NCI-H460; first compound 0.006325 µM
  relative viability: 0.447
NCI-H460; first compound 0.02 µM
  relative viability: 0.0191
NCI-H460; first compound 0.06325 µM
  relative viability: 0.0086
NCI-H460; first compound 0.2 µM
  relative viability: 0.0122
COR-L 105; first compound 0.002 µM
  relative viability: 1.04
COR-L 105; first compound 0.006325 µM
  relative viability: 0.96
COR-L 105; first compound 0.02 µM
  relative viability: 1.35
COR-L 105; first compound 0.06325 µM
  relative viability: 0.343
COR-L 105; first compound 0.2 µM
  relative viability: 0.181
EMC-BAC-2; first compound 0.002 µM
  relative viability: 0.746
EMC-BAC-2; first compound 0.006325 µM
  relative viability: 0.707
EMC-BAC-2; first compound 0.02 µM
  relative viability: 0.61
EMC-BAC-2; first compound 0.06325 µM
  relative viability: 0.771
EMC-BAC-2; first compound 0.2 µM
  relative viability: 0.762
NCI-H661; first compound 0.002 µM
  relative viability: 0.628
NCI-H661; first compound 0.006325 µM
  relative viability: 0.608
NCI-H661; first compound 0.02 µM
  relative viability: 0.48
NCI-H661; first compound 0.06325 µM
  relative viability: 0.322
NCI-H661; first compound 0.2 µM
  relative viability: 0.184
NCI-H1563; first compound 0.002 µM
  relative viability: 0.877
NCI-H1563; first compound 0.006325 µM
  relative viability: 0.942
NCI-H1563; first compound 0.02 µM
  relative viability: 0.95
NCI-H1563; first compound 0.06325 µM
  relative viability: 0.495
NCI-H1563; first compound 0.2 µM
  relative viability: 0.537
NCI-H647; first compound 0.002 µM
  relative viability: 1.25
NCI-H647; first compound 0.006325 µM
  relative viability: 1.12
NCI-H647; first compound 0.02 µM
  relative viability: 1.03
NCI-H647; first compound 0.06325 µM
  relative viability: 0.103
NCI-H647; first compound 0.2 µM
  relative viability: 0.0917
NCI-H1734; first compound 0.002 µM
  relative viability: 0.708
NCI-H1734; first compound 0.006325 µM
  relative viability: 0.736
NCI-H1734; first compound 0.02 µM
  relative viability: 0.541
NCI-H1734; first compound 0.06325 µM
  relative viability: 0.213
NCI-H1734; first compound 0.2 µM
  relative viability: 0.158
PC-14; first compound 0.002 µM
  relative viability: 0.942
PC-14; first compound 0.006325 µM
  relative viability: 0.882
PC-14; first compound 0.02 µM
  relative viability: 0.893
PC-14; first compound 0.06325 µM
  relative viability: 0.091
PC-14; first compound 0.2 µM
  relative viability: 0.0816
A-427; first compound 0.002 µM
  relative viability: 1.02
A-427; first compound 0.006325 µM
  relative viability: 1.07
A-427; first compound 0.02 µM
  relative viability: 0.697
A-427; first compound 0.06325 µM
  relative viability: 1.08
A-427; first compound 0.2 µM
  relative viability: 1.09
201T; first compound 0.002 µM
  relative viability: 0.965
201T; first compound 0.006325 µM
  relative viability: 1.01
201T; first compound 0.02 µM
  relative viability: 0.96
201T; first compound 0.06325 µM
  relative viability: 1.04
201T; first compound 0.2 µM
  relative viability: 1.03
HCC-15; first compound 0.002 µM
  relative viability: 0.964
HCC-15; first compound 0.006325 µM
  relative viability: 0.852
HCC-15; first compound 0.02 µM
  relative viability: 0.773
HCC-15; first compound 0.06325 µM
  relative viability: 0.54
HCC-15; first compound 0.2 µM
  relative viability: 0.492
NCI-H1915; first compound 0.002 µM
  relative viability: 1.09
NCI-H1915; first compound 0.006325 µM
  relative viability: 0.987
NCI-H1915; first compound 0.02 µM
  relative viability: 0.862
NCI-H1915; first compound 0.06325 µM
  relative viability: 1.08
NCI-H1915; first compound 0.2 µM
  relative viability: 1.04
COR-L23; first compound 0.002 µM
  relative viability: 0.825
COR-L23; first compound 0.006325 µM
  relative viability: 0.685
COR-L23; first compound 0.02 µM
  relative viability: 0.714
COR-L23; first compound 0.06325 µM
  relative viability: 0.0624
COR-L23; first compound 0.2 µM
  relative viability: 0.0515
EKVX; first compound 0.002 µM
  relative viability: 0.972
EKVX; first compound 0.006325 µM
  relative viability: 0.928
EKVX; first compound 0.02 µM
  relative viability: 0.514
EKVX; first compound 0.06325 µM
  relative viability: 1.07
EKVX; first compound 0.2 µM
  relative viability: 0.315
